Assay results reported in patent US10787413B2, “Derivatives of curcuminoids and use thereof as an anticancer agent” (CHINA MEDICAL UNIVERSITY, priority 2016, dated 2020).
Read-outs that look alike come from different tables or passages of the source.

Experiments:
[1] = tested on: HCT-116 colon cancer cell; test: MTT cell viability assay, HCT-116 colon cancer cell; assay type: cell-based
Experimental: (§1) Cell viability was evaluated by measuring the reduction in MTT to yield blue formazan. Cells were cultured in 96-well plates, allowed to attach overnight, and then treated with compounds. After treatment, MTT solution (1 mg/ml) was added to each well, and plates were incubated for another 4 h. Medium were removed, blue formazan was dissolved in DMSO, and the absorbance was read at 570 nm^20.

PC3 prostate cancer cell = test: MTT cell viability assay, PC3 prostate cancer cell; assay type: cell-based
Experimental: as §1

[2] = tested on: MDA-MB-231 breast cancer cell; test: MTT cell viability assay, MDA-MB-231 breast cancer cell; assay type: cell-based, human
Experimental: Cell viability was evaluated by measuring the reduction in MTT to yield blue formazan. Cells were cultured in 96-well plates, allowed to attach overnight, and then treated with compounds. After treatment, MTT solution (1 mg/ml) was added to each well, and plates were incubated for another 4 h.

[3] = Homo sapiens, HCT-116, treated 24 hours, read-out: IC50 24 hours
[4] = Homo sapiens, HCT-116, treated 72 hours, read-out: IC50 72 hours
[5] = PC-3, treated 24 hours, read-out: IC50 24 hours
[6] = PC-3, treated 48 hours, read-out: IC50 48 hours
[7] = PC-3, treated 72 hours, read-out: IC50 72 hours
[8] = Homo sapiens, MDA-MB-231, 24 h, MDA-MB-231, treated 24 hours, read-out: IC50 24 hours
[9] = Homo sapiens, MDA-MB-231, 72 h, MDA-MB-231, treated 72 hours, read-out: IC50 72 hours
[10] = HCT-116, treated 24 hours, read-out: IC50 24 hours
[11] = HCT-116, treated 48 hours, read-out: IC50 48 hours
[12] = HCT-116, treated 72 hours, read-out: IC50 72 hours
[13] = MDA-MB-231, treated 24 hours, read-out: IC50 24 hours
[14] = MDA-MB-231, treated 48 hours, read-out: IC50 48 hours
[15] = MDA-MB-231, treated 72 hours, read-out: IC50 72 hours
[16] = Homo sapiens, HCT-116, treated 48 hours, read-out: IC50 48 hours
[17] = Homo sapiens, MDA-MB-231, 48 h, MDA-MB-231, treated 48 hours, read-out: IC50 48 hours

Row | Structure (SMILES) | IC50 [1, 3] [µM] | IC50 [1, 4] [µM] | IC50 (PC3 prostate cancer cell; [5]) [µM] | IC50 (PC3 prostate cancer cell; [6]) [µM] | IC50 (PC3 prostate cancer cell; [7]) [µM] | IC50 [2, 8] [µM] | IC50 [2, 9] [µM] | IC50 [1, 10] [µM] | IC50 [1, 11] [µM] | IC50 [1, 12] [µM] | IC50 [2, 13] [µM] | IC50 [2, 14] [µM] | IC50 [2, 15] [µM] | IC50 [1, 16] [µM] | IC50 [2, 17] [µM]
1 | C#CCC(CC#C)(C(=O)/C=C/c1ccc(OC(=O)C(C)(CO)CO)c(OC)c1)C(=O)/C=C/c1ccc(OC(=O)C(C)(CO)CO)c(OC)c1 [Compound 35d, ((1E,6E)-3,5-Dioxo-4,4-di(prop-2-yn-1-yl)hepta-1,6-diene-1,7-diyl)bis(2-methoxy-4,1-phenylene) bis(3-hydroxy-2-(hydroxymethyl)-2-methylpropanoate)] | 14.5 ± 1.01 | 3.92 ± 0.24 | 17.1 ± 1.74 | 11.5 ± 0.96 | 6.7 ± 0.75 | 28.5 ± 5.29 | 4.9 | – | – | – | – | – | – | – | –
2 | COc1cc(/C=C/C(=O)C(Cc2ccccc2)(Cc2ccccc2)C(=O)/C=C/c2ccc(OC(=O)C(C)(CO)CO)c(OC)c2)ccc1OC(=O)C(C)(CO)CO [Compound 35c, ((1E,6E)-4,4-Dibenzyl-3,5-dioxohepta-1,6-dine-1,7-diyl)bis(2-methoxy-4,1-phenylene) bis(3-hydroxy-2-(hydroxymethyl)-2-methylpropanoate)] | – | – | 17.59 ± 0.14 | 9.09 ± 0.99 | 7.28 ± 0.5 | – | – | 12.9 ± 2.03 | 7.66 ± 0.61 | 3.88 ± 0.16 | 6.03 ± 2.52 | 2.45 ± 0.24 | 2.11 ± 0.04 | – | –
3 | CC(CO)(CO)C(=O)Oc1ccc(/C=C/C(=O)CC(=O)/C=C/c2ccc(OC(=O)C(C)(CO)CO)c(OC(F)(F)F)c2)cc1OC(F)(F)F [Compound 28, ((1E,6E)-3,5-dioxohepta-1,6-diene-1,7-diyl)bis(2-(trifluoromethoxy)-4,1-phenylene) bis(3-hydroxy-2-(hydroxymethyl)-2-methylpropanoate)] | 8.94 ± 0.66 | 6.27 ± 0.1 | 67.1 ± 3.39 | 53.9 ± 3.01 | 30.2 ± 2.37 | 16.6 ± 3.04 | 7.78 ± 0.09 | – | – | – | – | – | – | 7.11 ± 0.07 | 8.6 ± 0.74
4 | CCC(CO)(CO)C(=O)Oc1ccc(/C=C/C(=O)CC(=O)/C=C/c2ccc(OC(=O)C(CC)(CO)CO)c(OC(F)(F)F)c2)cc1OC(F)(F)F [Compound 29, ((1E,6E)-3,5-dioxohepta-1,6-diene-1,7-diyl)bis(2-(trifluoromethoxy)-4,1-phenylene) bis(2,2-bis(hydroxymethyl)butanoate)] | 7.43 ± 0.1 | 4.38 ± 0.26 | 37 ± 0.56 | 29.7 ± 2.83 | 8.1 ± 1.56 | 9.48 ± 0.44 | 7.22 ± 0.41 | – | – | – | – | – | – | 4.69 ± 0.49 | 7.79 ± 0.61
5 | COc1cc(/C=C/C(=O)CC(=O)/C=C/c2ccc(OC(=O)C(CO)(CO)CO)c(OC)c2)ccc1O [Compound 38a, 4-((1E,6E)-7-(4-hydroxy-3-methoxyphenyl)-3,5-dioxohept-1,6-den-1-yl)-2-methoxyphenyl 3-hydroxy-2,2-bis(hydroxymethyl)propanoate] | 39.59 ± 0.23 | 9.86 ± 0.01 | 46.5 ± 0.48 | 34.9 ± 0.2 | 32.7 ± 0.56 | 47.3 ± 1.31 | 17.5 ± 1.62 | – | – | – | – | – | – | 18.4 ± 0.62 | 21.1 ± 1.01
6 | O=C(/C=C/c1ccc(O)cc1)CC(=O)/C=C/c1ccc(O)cc1 [Bisdemethoxycurcumin, bisdemethoxycurcumin, reference compound] | – | – | > 100 | 28.5 ± 1.09 | 26.9 ± 4.36 | – | – | > 100 | 29.6 ± 0.78 | 23.7 ± 2.43 | > 100 | 26.92 ± 0.19 | 27.5 ± 0.42 | – | –
7 | CCC(CO)(CO)C(=O)Oc1ccc(/C=C/C(=O)/C=C(O)/C=C/c2ccc(OC(=O)C(CC)(CO)CO)c(OC)c2)cc1OC [Compound 22a, ((1E,3Z,6E)-3-Hydroxy-1-oxohepta-1,3,6-triene-1,7-diyl)bis(2-methoxy-4,1-phenylene) bis(2,2-bis(hydroxymethyl)butanoate)] | – | – | 6.91 ± 0.67 | 5.12 ± 0.29 | 4.21 ± 0.14 | – | – | 5.82 ± 0.56 | 2.4 ± 0.32 | 1.34 ± 0.04 | 4.71 ± 0.29 | 2.56 ± 0.18 | 2 | – | –
8 | COc1ccc(/C=C/C(=O)C(COC(C)=O)(COC(C)=O)C(=O)/C=C/c2ccc(OC)c(OC)c2)cc1OC [Compound 44, 2,2-bis((E)-3-(3,4-dimethoxyphenyl)acryloyl)propane-1,3-diyl diacetate] | 6.33 ± 1.01 | 1.51 ± 0.55 | 3.68 ± 0.11 | 3.07 ± 0.37 | 0.85 ± 0.07 | 7.21 ± 0.18 | 0.61 ± 0.1 | – | – | – | – | – | – | 3.66 ± 0.25 | 0.9 ± 0.03
9 | CCc1cc(/C=C/C(=O)CC(=O)/C=C/c2cc(CC)c(OC(=O)C(C)(CO)CO)c(CC)c2)cc(CC)c1OC(=O)C(C)(CO)CO [Compound 31, ((1E,6E)-3,5-dioxohepta-1,6-diene-1,7-diyl)bis(2,6-diethyl-4,1-phenylene) bis(3-hydroxy-2-(hydroxymethyl)-2-methylpropanoate)] | 7.21 ± 0.21 | 3.51 ± 0.01 | 19.9 ± 1.27 | 7.49 ± 0.18 | 4.14 ± 1.1 | 8.68 ± 0.07 | 3.82 ± 0.03 | – | – | – | – | – | – | 3.67 ± 0.01 | 7.4 ± 0.63
